Laboratory results from patent US20080096894A1, “Anti-Bacterial Compounds” (ASTON UNIVERSITY, priority 2005, published 2008).

Legend:
[1] = system: Propionibacterium acnes; assay: MIC against Propionibacterium acnes, microtitre double dilution in BHI; type: cell-based
Experimental: Compounds 4PYcq and 4PYOfi were screened against one NCTC stain and seven clinical isolates of Propionibacterium acnes as described below.
Bacterial strains of Propionibacterium acnes, stored on beads at −20° C., were plated onto Brain heart infusion (BHI) agar plates. The cultures were incubated anaerobically for 4 days at 37° C.
Bacterial suspensions were prepared by diluting bacterial suspensions with BHI to obtain bacterial concentrations approximately 2×10^6 cfu/ml.
The test antimicrobial compounds were prepared by diluting the compound with appropriate nutrient broth to obtain correct stock solution. 50 μl of BHI were aliquoted onto the wells of the round-bottomed microtitre plate. 50 μl of the antimicrobial compounds were added onto the wells in the first column of the plate and several serial double dilutions were performed along the wells on each row. Following the series of double dilutions of the test compound the bacterial suspension were added onto each well except on the last column which served as a negative control. The lowest concentration of the test compound which inhibited bacterial growth was regarded as MIC of the compound.

[2] = system: C. difficile (NCTC 11204 and thirty-two clinical isolates); assay: Minimum Inhibitory Concentration (MIC) against C. difficile, microtiter plate, anaerobic, 48 hours; type: cell-based, Clostridium difficile
Experimental: (§1) Compounds 4PYcq and 4PYOfi were screened against one NCTC strain and thirty-two clinical isolates of Clostridium difficile as described below.
(§2) The antimicrobial compounds were prepared by adding 5.12 mg of each compound to 1 ml of DMSO. From each solution 100 μl was then aseptically transferred into 1 ml of sterile distilled water to give a concentration of 512 μg/ml. 100 μl of each diluted compound was then added to the first well of a sterile 96-well microliter plate. Serial dilutions were performed to give a concentration range spanning from 0 to 512 μg/ml of each compound. The microtiter plate containing the antimicrobials was left to equilibrate in an anaerobic cabinet for 3 hours before the addition of C. difficile cells. An overnight culture of C. difficile (NCTC 11204) was standardized to an OD^600 of 0.04 (approximately 10^6 CFU/ml), using Wilkins Chalgren broth and was vortexed for 60 seconds to ensure there was a uniform suspension. 100 μl of standardized culture was then added to each well of the microtiter plate, containing the equilibrated antimicrobials. The final concentrations of the antimicrobials in the wells therefore ranged from […] and the concentration of the culture was 10^5 CFU/ml in each well. The microtiter plate was incubated at 37° C., for 48 hours under anaerobic conditions. The MIC was determined as the lowest concentration of antimicrobial agent inhibiting the total growth of C. difficile cells. After incubation, the total solution from each well was aseptically spread onto a separate Wilkins chalgren agar plate. Plates were incubated for 48 hours, at 37° C., under anaerobic conditions. The number of colonies on each plate was counted after incubation and the MBC was determined as the lowest concentration of the antimicrobial agent at which 99.9% of organisms in the original inoculum were killed.

[3] = system: C. difficile (NCTC 11204 and thirty-two clinical isolates); assay: Minimum Bactericidal Concentration (MBC) against C. difficile, 99.9% kill; type: cell-based, Clostridium difficile
Experimental: as §1, §2

[4] = system: Acinetobater spp.; assay: activity against Acinetobacter spp.; type: cell-based; settings: Gram-negative bacterium
[5] = Clostridium difficile Isolate 1
[6] = Clostridium difficile Isolate 2
[7] = Clostridium difficile Isolate 3
[8] = Clostridium difficile Isolate 4
[9] = Clostridium difficile Isolate 5
[10] = Clostridium difficile Isolate 6
[11] = Clostridium difficile Isolate 7
[12] = Clostridium difficile Isolate 8
[13] = Clostridium difficile Isolate 9
[14] = Clostridium difficile Isolate 10
[15] = Clostridium difficile Isolate 11
[16] = Clostridium difficile Isolate 12
[17] = Clostridium difficile Isolate 13
[18] = Clostridium difficile Isolate 14
[19] = Clostridium difficile Isolate 15
[20] = Clostridium difficile Isolate 16
[21] = Clostridium difficile Isolate 17
[22] = Clostridium difficile Isolate 18
[23] = Clostridium difficile Isolate 19
[24] = Clostridium difficile Isolate 20
[25] = Clostridium difficile Isolate 21
[26] = Clostridium difficile Isolate 22
[27] = Clostridium difficile Isolate 23
[28] = Clostridium difficile Isolate 24
[29] = Clostridium difficile Isolate 25
[30] = Clostridium difficile Isolate 26
[31] = Clostridium difficile Isolate 27
[32] = Clostridium difficile Isolate 28
[33] = Clostridium difficile Isolate 29
[34] = Clostridium difficile Isolate 30
[35] = Clostridium difficile Isolate 31
[36] = Clostridium difficile Isolate 32
[37] = Clostridium difficile NCTC 11204

NC(=NN=Cc1ccc([N+](=O)[O-])o1)c1cc[n+]([O-])cc1 (mixture of isomers) [Compound 4PYOfi]
MIC ([1]; P. acnes Isolate 1): 8 to 16 µg/mL | MIC ([1]; P. acnes Isolate 2): 8 to 16 µg/mL | MIC ([1]; P. acnes Isolate 3): 8 to 16 µg/mL | MIC ([1]; P. acnes Isolate 4): 8 to 16 µg/mL | MIC ([1]; P. acnes Isolate 5): 16 to 32 µg/mL | MIC ([1]; P. acnes Isolate 6): 8 to 16 µg/mL | MIC ([1]; P. acnes Isolate 7): 8 to 16 µg/mL | MIC ([1]; P. acnes NCTC 737): 16 to 32 µg/mL | MIC [2, 5]: 16 to 32 µg/mL | MIC [2, 6]: 4 to 8 µg/mL | MIC [2, 7]: 8 to 16 µg/mL | MIC [2, 8]: 64 to 128 µg/mL | MIC [2, 9]: 2 to 4 µg/mL | MIC [2, 10]: 16 to 32 µg/mL | MIC [2, 11]: 32 to 64 µg/mL | MIC [2, 12]: 2 to 4 µg/mL | MIC [2, 13]: 128 to 256 µg/mL | MIC [2, 14]: 32 to 64 µg/mL | MIC [2, 15]: 2 to 4 µg/mL | MIC [2, 16]: 2 to 4 µg/mL | MIC [2, 17]: 64 to 128 µg/mL | MIC [2, 18]: 2 to 4 µg/mL | MIC [2, 19]: 2 to 4 µg/mL | MIC [2, 20]: 2 to 4 µg/mL | MIC [2, 21]: 1 to 2 µg/mL | MIC [2, 22]: 1 to 2 µg/mL | MIC [2, 23]: 8 to 16 µg/mL | MIC [2, 24]: 2 to 4 µg/mL | MIC [2, 25]: 16 to 32 µg/mL | MIC [2, 26]: 4 to 8 µg/mL | MIC [2, 27]: 2 to 4 µg/mL | MIC [2, 28]: 4 to 8 µg/mL | MIC [2, 29]: 2 to 4 µg/mL | MIC [2, 30]: 2 to 4 µg/mL | MIC [2, 31]: 16 to 32 µg/mL | MIC [2, 32]: 16 to 32 µg/mL | MIC [2, 33]: 4 to 8 µg/mL | MIC [2, 34]: 16 to 32 µg/mL | MIC [2, 35]: 4 to 8 µg/mL | MIC [2, 36]: 4 to 8 µg/mL | MIC [2, 37]: 2 to 4 µg/mL | MBC [3, 5]: 32 to 64 µg/mL | MBC [3, 6]: 16 to 32 µg/mL | MBC [3, 7]: 8 to 16 µg/mL | MBC [3, 8]: 64 to 128 µg/mL | MBC [3, 9]: 2 to 4 µg/mL | MBC [3, 10]: 16 to 32 µg/mL | MBC [3, 11]: 32 to 64 µg/mL | MBC [3, 12]: 8 to 16 µg/mL | MBC [3, 13]: 128 to 256 µg/mL | MBC [3, 14]: 32 to 64 µg/mL | MBC [3, 15]: 4 to 8 µg/mL | MBC [3, 16]: 4 to 8 µg/mL | MBC [3, 17]: 128 to 256 µg/mL | MBC [3, 18]: 4 to 8 µg/mL | MBC [3, 19]: 8 to 16 µg/mL | MBC [3, 20]: 4 to 8 µg/mL | MBC [3, 21]: 2 to 4 µg/mL | MBC [3, 22]: 1 to 2 µg/mL | MBC [3, 23]: 16 to 32 µg/mL | MBC [3, 24]: 4 to 8 µg/mL | MBC [3, 25]: 16 to 32 µg/mL | MBC [3, 26]: 4 to 8 µg/mL | MBC [3, 27]: 2 to 4 µg/mL | MBC [3, 28]: 4 to 8 µg/mL | MBC [3, 29]: 8 to 16 µg/mL | MBC [3, 30]: 2 to 4 µg/mL | MBC [3, 31]: 16 to 32 µg/mL | MBC [3, 32]: 16 to 32 µg/mL | MBC [3, 33]: 8 to 16 µg/mL | MBC [3, 34]: 16 to 32 µg/mL | MBC [3, 35]: 8 to 16 µg/mL | MBC [3, 36]: 8 to 16 µg/mL | MBC [3, 37]: 2 to 4 µg/mL | activity against Acinetobater spp. (in words) [4]: inactive
